Patent publication US5668134A, “Method for preventing or reducing photosensitivity and/or phototoxicity reactions to medications” (priority 1994, dated 1997)
Several values for one entry are separate records, joined by “and”; a condition that tells them apart may be missing. Equal entries are not always repeated. Structures can show the parent of a compound that is named as a salt. Where two headings read alike, the source gives them in different places.

Legend:
[1] = Tissue or fluid to plasma ratios and blister fluid distribution after oral administration; format: in vivo, human; details: for Kp: oral, read-out: Mean Tissue or Fluid to Plasma Ratio
Source text: The following are mean tissue or fluid to plasma ratios of lomefloxacin following oral administration.
Equilibrium between the serum and blister fluid is achieved approximately two hours postdose, with a partition coefficient of 1.0 (blister fluid:serum). The concentration vs. time profiles in blister fluid following single dose administration are similar to those obtained at steady-state during a once daily dosing regimen.

[2] = tested on: bacterial enzyme DNA gyrase; assay: Interference with bacterial DNA gyrase; format: biochemical
Citrobacter diversus = assay: Activity in vitro and in clinical infections; format: cell-based
Klebsiella pneumoniae = assay: Activity in vitro and in clinical infections; format: cell-based
[3] = Solubility of lomefloxacin HCl in urine; format: physicochemical; details: human
Description: Following a single 400 mg dose of lomefloxacin HCl, the solubility of lomefloxacin HCl in urine usually exceeded its peak urinary concentration 2 to 6 fold.

[4] = Pharmacokinetics in patients with cirrhosis; format: in vivo, human; details: 12 patients with cirrhosis, 400 mg single dose
[5] = tested on: skin of healthy volunteers; assay: Example 5: Minimum Erythema Dose with UVA radiation, morning vs evening dosing; format: in vivo, human; details: for phototoxicity of evening versus morning dosing: UVA exposure 16 hours vs 2 hours after dosing; for DELAYED MED / IMMEDIATE MED / MED, 0 H / MED, 3 H / MED, 6 H / MED, 24 H / MED, 48 H / MED, 72 H / CHANGE BASELINE, delayed MED / CHANGE BASELINE, immediate MED: individual subjects; for MED, 0 H: 0 H post-radiation; for MED, 3 H: 3 H post-radiation; for MED, 6 H: 6 H post-radiation; for MED, 24 H: 24 H post-radiation; for MED, 48 H: 48 H post-radiation; for MED, 72 H: 72 H post-radiation; for CHANGE BASELINE, delayed MED / CHANGE BASELINE, immediate MED: baseline minus posttreatment
Description: This study describes a randomized, single site, double-blind, two treatment, two period, two sequence, cross-over clinical pharmacology study which was performed according to FDA regulations in 27 healthy normal volunteers with fair skin that could easily burn when exposed to sunlight, to assess the photosensitivity and/or phototoxicity potential of oral 400 mg lomefloxacin hydrochloride (MAXAQUIN®) administered once daily for 4 consecutive days either in the morning (morning dose group), as described hereinbelow, or in the early evening (evening dose group), as described hereinbelow. Irradiation and evaluation of irradiated sites began at 2 hours after the final morning dose of lomefloxacin HCl for the morning dosing group, and began 16 hours after the final evening dose of lomefloxacin HCl for the evening dosing group.
"Baseline MED" was defined as the lowest dose of UVA radiation alone, or UVA and UVB radiation, that produced a minimal perceptible erythema filling a 1 cm^2 patch of skin 24 hours post radiation.
"Delayed MED" was defined as the lowest dose of UVA radiation alone, or UVA and UVB radiation, that produced a minimal perceptible erythema filling a 1 cm^2 patch of skin, when testing the area 24, 48 and 72 hours post radiation.
"Immediate MED" was defined as the lowest dose producing minimal perceptible erythema filling a 1 cm^2 patch of skin when testing the area 0, 3, and 6 hours post radiation.
After all baseline procedures, including determination of baseline MEDUVA and MEDUVA+UVB values 24 hours post-radiation, were completed, all subjects started Study Day 1 of Treatment Period 1 with an evening dose of study medication, and completed this phase of the treatment regime with a morning dose of study medication on Study Day 5. Two hours after the final morning dose, and 16 hours after the last evening dose, a randomly selected site composed of six patches of skin, each with an area of one square centimeter, on the back or buttock of the subject was irradiated with incremental amounts of energy. Immediately following irradiation (0 hour), and at 3, 6, 24, 48 and 72 hours following irradiation, each skin patch area was evaluated to determine the MEDs, and assess the severity of skin reaction using a five-grade system, as described hereinbelow. The lowest of the MEDs determined at 0, 3 and 6 hours post-radiation were referred to as immediate MEDs, and the lowest of the MEDs determined at 24, 48 and 72 hours post-radiation were referred to as delayed MEDs.
The source of radiation employed was an Oriel (Santa Monica, Calif.) Xenon Arc 1000 watt solar simulator, with the following filters: WG320 filter (1 mm thick, emitting full spectrum UVA and UVB radiation), WG335 filter (3 mm thick, emitting almost exclusively UVA radiation) or UG11 filter (to filter infrared radiation).
For predrug exposure MED determination, 2 sets each with six 1 cm^2 patches on the back or buttocks were irradiated with increasing doses of UVA and UVB radiation, and UVA radiation alone, up to 7 days prior to beginning of drug treatment. With respect to UVA light source, irradiation began at 5 J/cm^2, and was increased by increments of 5 J/cm^2 using a different skin patch for each exposure. The maximum radiation dose was 30 J/cm^2. Subjects with MED greater than 30 J/cm^2 were excluded from the study. […] A different skin patch was used for each exposure.
Two hours after the administration of the last dose of Treatment Period 1 (a.m. dose), the two randomly selected sites on each subject's back or buttocks were exposed one to UVA and UVB radiation, and one to UVA radiation alone. In order to protect the subjects from excessive radiation, as well as assess the true Minimum Erythema Dose (MED), the posttreatment irradiation doses for each subject was adjusted in accordance with their pretreatment MEDs. The following table was used to determine each subject's minimum and maximum posttreatment radiation dose: […]

healthy male volunteers = details: lomefloxacin 400 mg BID, ciprofloxacin 750 mg BID, 14 days, UVA and UVA/UVB
Description: This study was a single center, open label, multiple does, parallel, randomized study in healthy male volunteers.
Drug administration began on day three. Single dermatological sites were chosen on each of the subjects to be the site which was to be evaluated over time. Twenty joules of radiation were administered to these sites on day 1, day 6 and day 16. Also, graded UVA-UVB exposure was performed on days 2, 7 and 16. The dermatological responses were scored at 1, 24 and 48 hours after each UVA exposure and at 24 hours after the combined UVA-UVB exposure. The definitions which were employed in interpreting this study were that photosensitivity was to be assessed by exposure duration associated with the smallest dermatological response score above zero, which was defined as the minimal erythrogenic dose after the UVA-UVB exposure. The photosensitivity and/or phototoxicity reaction was taken by definition to be an increase of equal to or greater than 1 unit in what was defined as a dermatological response over baseline values after the UVA exposure.

[6] = mean, UVA, a.m. dosing, p=0.002

`CCn1cc(C(=O)O)c(=O)c2cc(F)c(N3CCNC(C)C3)c(F)c21` (racemic) [lomefloxacin HCl, monohydrochloride salt of (±)-1-ethyl-6,8-difluoro-1,4-dihydro-7-(3-methyl-1-piperazinyl)-4-oxo-3-quinolinecarboxylic acid] showed a Kp ([1]; Blister Fluid) of 1, a Kp ([1]; Bronchial mucosa) of 2.1 and a Kp ([1]; Bronchial secretions) of 0.6. It also gave a Kp ([1]; Prostatic tissue) of 2, a Kp ([1]; Sputum) of 1.3 and a Kp ([1]; Urine) of 140. For the same molecule, the “terminal half-life in blister fluid versus serum” value ([1]; inflammatory exudate fluid of blisters) was “same terminal half-life”, the “time to equilibrium between serum and blister fluid” value ([1]; postdose) was “approximately two” and the “mechanism of bactericidal action” value [2] was “interference with the activity of the bacterial enzyme DNA gyrase”. The “activity against most strains” value (Citrobacter diversus) was “active against most strains”, the “activity against most strains” value (Klebsiella pneumoniae) was “active against most strains” and the solubility ([3]; pH 5.2) was 7800 µg/mL. For the same molecule, the solubility ([3]; pH 6.5) was 2400 µg/mL, the solubility ([3]; pH 8.12) was 3030 µg/mL and the “changes in rate or extent of exposure (Cmax, Tmax, t1/2 or AUC)” value [4] was “no significant changes”. The “phototoxicity of evening versus morning dosing” value [5] was “less sensitive to light”, the “phototoxicity of evening versus morning dosing” value ([5]; listed as MAXAQUIN®) was “significantly less phototoxic” and the “mean change of delayed MEDUVA, a.m. versus p.m.” value ([5]; in vivo) was “statistically significant difference”. For the same molecule, the “treatment effect on delayed MEDUVA, conservative analysis” value ([5]; in vivo) was “statistically significant treatment effect”, the “DELAYED MED” value ([5]; UVA, a.m. dosing) was 10.000 J/cm^2 and 20.000 J/cm^2 and 15.000 J/cm^2 and 30.000 J/cm^2 and 25.000 J/cm^2 and the “IMMEDIATE MED” value ([5]; UVA, a.m. dosing) was 15.000 J/cm^2 and 20.000 J/cm^2 and 30.000 J/cm^2 and 25.000 J/cm^2. For the same molecule, the “MED, 0 H” value ([5]; UVA, a.m. dosing) was 25.000 J/cm^2 and 30.000 J/cm^2 and 15.000 J/cm^2, the “MED, 3 H” value ([5]; UVA, a.m. dosing) was 15.000 J/cm^2 and 20.000 J/cm^2 and 25.000 J/cm^2 and the “MED, 6 H” value ([5]; UVA, a.m. dosing) was 15.000 J/cm^2 and 20.000 J/cm^2 and 30.000 J/cm^2 and 25.000 J/cm^2. For the same molecule, the “MED, 24 H” value ([5]; UVA, a.m. dosing) was 10.000 J/cm^2 and 20.000 J/cm^2 and 15.000 J/cm^2 and 30.000 J/cm^2 and 25.000 J/cm^2, the “MED, 48 H” value ([5]; UVA, a.m. dosing) was 15.000 J/cm^2 and 25.000 J/cm^2 and 30.000 J/cm^2 and 20.000 J/cm^2 and the “MED, 72 H” value ([5]; UVA, a.m. dosing) was 15.000 J/cm^2 and 25.000 J/cm^2 and 20.000 J/cm^2 and 30.000 J/cm^2. The “CHANGE BASELINE, delayed MED” value ([5]; UVA, a.m. dosing) was 20.000 J/cm^2 and 5.000 J/cm^2 and 10.000 J/cm^2 and -5.000 J/cm^2, the “CHANGE BASELINE, immediate MED” value ([5]; UVA, a.m. dosing) was 15.000 J/cm^2 and 5.000 J/cm^2 and 10.000 J/cm^2 and -5.000 J/cm^2 and the “DELAYED MED” value ([5]; UVA, p.m. dosing) was 30.000 J/cm^2 and 25.000 J/cm^2 and 20.000 J/cm^2. The “IMMEDIATE MED” value ([5]; UVA, p.m. dosing) was 30.000 J/cm^2 and 25.000 J/cm^2, the “MED, 0 H” value ([5]; UVA, p.m. dosing) was 30.000 J/cm^2 and 25.000 J/cm^2 and the “MED, 3 H” value ([5]; UVA, p.m. dosing) was 30.000 J/cm^2. The “MED, 6 H” value ([5]; UVA, p.m. dosing) was 30.000 J/cm^2 and 25.000 J/cm^2, the “MED, 24 H” value ([5]; UVA, p.m. dosing) was 30.000 J/cm^2 and 25.000 J/cm^2 and the “MED, 48 H” value ([5]; UVA, p.m. dosing) was 30.000 J/cm^2 and 20.000 J/cm^2 and 25.000 J/cm^2. The “MED, 72 H” value ([5]; UVA, p.m. dosing) was 30.000 J/cm^2 and 25.000 J/cm^2, the “CHANGE BASELINE, delayed MED” value ([5]; UVA, p.m. dosing) was -5.000 J/cm^2 and 0.000 J/cm^2 and 5.000 J/cm^2 and the “CHANGE BASELINE, immediate MED” value ([5]; UVA, p.m. dosing) was -5.000 J/cm^2 and 5.000 J/cm^2 and 0.000 J/cm^2. The “DELAYED MED, mean” value ([5]; mean, UVA, a.m. dosing) was 20.000 J/cm^2, the “IMMEDIATE MED, mean” value ([5]; mean, UVA, a.m. dosing) was 19.615 J/cm^2 and the “MED, 0 H, mean” value ([5]; mean, UVA, a.m. dosing) was 25.500 J/cm^2. The “MED, 3 H, mean” value ([5]; mean, UVA, a.m. dosing) was 20.833 J/cm^2, the “MED, 6 H, mean” value ([5]; mean, UVA, a.m. dosing) was 19.615 J/cm^2 and the “MED, 24 H, mean” value ([5]; mean, UVA, a.m. dosing) was 20.385 J/cm^2. For the same molecule, the “MED, 48 H, mean” value ([5]; mean, UVA, a.m. dosing) was 22.692 J/cm^2, the “MED, 72 H, mean” value ([5]; mean, UVA, a.m. dosing) was 23.077 J/cm^2 and the “CHANGE BASELINE, delayed MED, mean” value [5, 6] was 6.5 J/cm^2 and 6.538 J/cm^2. For the same molecule, the “CHANGE BASELINE, immediate MED, mean” value [5, 6] was 6.923 J/cm^2 and 6.9 J/cm^2, the “DELAYED MED, mean” value ([5]; mean, UVA, p.m. dosing) was 27.917 J/cm^2 and the “IMMEDIATE MED, mean” value ([5]; mean, UVA, p.m. dosing) was 28.750 J/cm^2. For the same molecule, the “MED, 0 H, mean” value ([5]; mean, UVA, p.m. dosing) was 28.333 J/cm^2, the “MED, 3 H, mean” value ([5]; mean, UVA, p.m. dosing) was 30.000 J/cm^2 and the “MED, 6 H, mean” value ([5]; mean, UVA, p.m. dosing) was 28.750 J/cm^2. The “MED, 24 H, mean” value ([5]; mean, UVA, p.m. dosing) was 28.333 J/cm^2, the “MED, 48 H, mean” value ([5]; mean, UVA, p.m. dosing) was 28.182 J/cm^2 and the “MED, 72 H, mean” value ([5]; mean, UVA, p.m. dosing) was 28.500 J/cm^2. The “CHANGE BASELINE, delayed MED, mean” value ([5]; mean, UVA, p.m. dosing, p=1.000) was 0.000 J/cm^2 and the “rate of photosensitivity reactions” value (healthy male volunteers) was 64%.
